According to patent US11339130B1 (Blade Therapeutics, Inc., priority 2016, dated 2022):
Read-outs that look alike come from different tables or passages of the source.

How the values were obtained:
[1] = tested on: Calpain activity in SH-SY5Y cells; assay: SH-SY5Y + AMC fluorescence assay (Suc-LLVY-AMC substrate); format: cell-based
[2] = molecular target: T1, Human Calpain 9/NS1 (Homo sapiens, UniProt O14815); assay: Calpain inhibition continuous fluorescence (FRET) assay, Human Calpain 9/NS1; format: biochemical; conditions: Column C; read-out: Human Calpain 9/NS1 IC50
T1 sequence (O14815 1-690): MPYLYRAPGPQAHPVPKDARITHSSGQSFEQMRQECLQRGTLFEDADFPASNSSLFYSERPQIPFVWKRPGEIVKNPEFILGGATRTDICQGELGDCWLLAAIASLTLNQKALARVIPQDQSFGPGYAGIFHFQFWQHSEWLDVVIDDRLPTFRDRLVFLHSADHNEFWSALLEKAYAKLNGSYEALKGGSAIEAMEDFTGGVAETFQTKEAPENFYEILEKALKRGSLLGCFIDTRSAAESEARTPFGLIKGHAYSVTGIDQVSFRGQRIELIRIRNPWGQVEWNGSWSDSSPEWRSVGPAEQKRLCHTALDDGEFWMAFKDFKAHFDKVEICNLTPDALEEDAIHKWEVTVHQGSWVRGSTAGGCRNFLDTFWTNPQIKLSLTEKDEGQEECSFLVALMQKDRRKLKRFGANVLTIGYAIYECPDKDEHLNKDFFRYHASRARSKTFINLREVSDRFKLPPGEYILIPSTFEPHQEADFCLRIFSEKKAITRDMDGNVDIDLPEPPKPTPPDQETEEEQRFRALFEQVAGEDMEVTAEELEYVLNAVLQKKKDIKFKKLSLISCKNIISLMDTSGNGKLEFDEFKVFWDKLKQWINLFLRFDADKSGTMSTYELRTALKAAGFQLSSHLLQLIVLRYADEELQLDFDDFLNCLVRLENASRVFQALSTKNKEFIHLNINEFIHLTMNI
T1 sequence (P04632 1-268 partner): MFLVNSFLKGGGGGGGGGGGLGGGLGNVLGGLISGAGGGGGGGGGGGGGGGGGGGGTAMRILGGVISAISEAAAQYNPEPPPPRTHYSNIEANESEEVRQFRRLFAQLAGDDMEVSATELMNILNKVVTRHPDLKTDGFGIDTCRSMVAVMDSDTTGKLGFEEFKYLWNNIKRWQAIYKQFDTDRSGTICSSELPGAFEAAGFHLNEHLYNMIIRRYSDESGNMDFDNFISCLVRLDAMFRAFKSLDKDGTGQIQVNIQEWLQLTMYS
In short: (§1)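 Fluorescence increase from the cleaved 5-FAM/QXL 520 substrate, read at 490/520 nm, gave activity. Calcium was supplied with the substrate to activate the enzyme in situ after a 25C enzyme-inhibitor preincubation, and IC50s were fit from initial slopes.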

[3] = tested on: Calpain activity in SH-SY5Y cells (SBDP-150); assay: SH-SY5Y Spectrin western blot assay (SBDP-150 breakdown product, A23187-induced); format: cell-based; conditions: Homo sapiens, read-out: SH-SY5Y Spectrin IC50
[4] = molecular target: T2, Human Calpain 2/NS1 (Homo sapiens, UniProt P17655); assay: Calpain inhibition continuous fluorescence (FRET) assay, Human Calpain 2/NS1; format: biochemical; conditions: Column B; read-out: Human Calpain 2/NS1 IC50
T2 sequence (P17655 1-700): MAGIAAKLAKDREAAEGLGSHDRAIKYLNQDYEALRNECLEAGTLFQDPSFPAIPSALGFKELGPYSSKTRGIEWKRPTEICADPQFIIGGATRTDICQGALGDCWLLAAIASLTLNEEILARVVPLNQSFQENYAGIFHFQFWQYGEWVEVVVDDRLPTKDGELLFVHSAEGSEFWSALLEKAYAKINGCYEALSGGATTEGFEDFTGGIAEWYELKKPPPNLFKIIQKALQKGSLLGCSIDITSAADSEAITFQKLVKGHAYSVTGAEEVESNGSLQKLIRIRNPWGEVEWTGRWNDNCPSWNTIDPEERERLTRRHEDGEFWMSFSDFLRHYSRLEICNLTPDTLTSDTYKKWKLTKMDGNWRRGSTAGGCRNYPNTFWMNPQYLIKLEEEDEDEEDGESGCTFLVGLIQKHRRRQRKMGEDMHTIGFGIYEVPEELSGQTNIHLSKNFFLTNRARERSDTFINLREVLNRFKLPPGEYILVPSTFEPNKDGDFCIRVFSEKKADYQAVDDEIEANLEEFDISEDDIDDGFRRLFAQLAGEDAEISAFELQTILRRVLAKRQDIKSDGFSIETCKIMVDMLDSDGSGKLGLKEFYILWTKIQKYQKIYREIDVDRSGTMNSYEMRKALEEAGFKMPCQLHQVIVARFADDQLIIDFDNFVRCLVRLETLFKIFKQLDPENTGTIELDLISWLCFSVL
T2 sequence (P04632 1-268 partner): T1 sequence (P04632 1-268 partner)
In short: as §1

[5] = molecular target: T3, Human Calpain 1/NS1 (Homo sapiens, UniProt P07384); assay: Calpain inhibition continuous fluorescence (FRET) assay, Human Calpain 1/NS1; format: biochemical; conditions: Column A; read-out: Human Calpain 1/NS1 IC50
T3 sequence (P07384 1-714): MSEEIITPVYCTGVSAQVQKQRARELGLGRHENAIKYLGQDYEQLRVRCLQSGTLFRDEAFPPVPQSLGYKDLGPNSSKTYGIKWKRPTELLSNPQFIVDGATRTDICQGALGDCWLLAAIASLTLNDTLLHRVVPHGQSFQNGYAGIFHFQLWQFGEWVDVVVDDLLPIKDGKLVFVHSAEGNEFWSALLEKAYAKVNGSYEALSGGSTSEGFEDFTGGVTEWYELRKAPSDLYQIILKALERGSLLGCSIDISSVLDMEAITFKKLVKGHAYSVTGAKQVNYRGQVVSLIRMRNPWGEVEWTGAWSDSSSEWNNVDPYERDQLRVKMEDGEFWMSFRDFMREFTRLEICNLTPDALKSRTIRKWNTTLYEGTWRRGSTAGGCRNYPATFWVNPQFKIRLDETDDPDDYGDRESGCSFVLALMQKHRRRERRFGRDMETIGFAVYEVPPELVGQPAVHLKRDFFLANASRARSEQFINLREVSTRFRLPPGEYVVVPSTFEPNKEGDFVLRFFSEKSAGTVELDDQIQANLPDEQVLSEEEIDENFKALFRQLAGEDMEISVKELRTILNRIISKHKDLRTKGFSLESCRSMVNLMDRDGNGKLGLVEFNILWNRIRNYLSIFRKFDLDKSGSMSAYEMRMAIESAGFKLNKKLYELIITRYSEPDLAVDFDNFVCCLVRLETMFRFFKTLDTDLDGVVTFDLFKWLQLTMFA
T3 sequence (P04632 1-268 partner): T1 sequence (P04632 1-268 partner)
In short: as §1

[6] = Column E, read-out: SH-SY5Y + AMC IC50
[7] = Column D, SH-SY5Y cells, A23187-induced SBDP-150

SMILES	IC50 [1, 6] [µM]	IC50 [2] [µM]	IC50 [3, 7] [µM]	IC50 [4] [µM]	IC50 [5] [µM]	IC50 ([1]; read-out: SH-SY5Y + AMC IC50, Column E) [µM]	IC50 ([3]; SH-SY5Y) [µM]
NC(=O)C(=O)[C@H](Cc1ccccc1)NC(=O)c1cncn1-c1ccc(-c2ncco2)cn1 [Compound 112, (S)—N-(4-amino-3,4-dioxo-1-phenylbutan-2-yl)-1-(5-(oxazol-2-yl)pyridin-2-yl)-1H-imidazole-5-carboxamide]	> 25	< 3	< 10	< 3	< 3	–	–
Cc1cc(C(=O)N[C@@H](Cc2ccccc2)C(=O)C(N)=O)n(-c2ncc(-c3ccccc3)s2)n1 [Compound 113, (S)—N-(4-amino-3,4-dioxo-1-phenylbutan-2-yl)-3-methyl-1-(5-phenylthiazol-2-yl)-1H-pyrazole-5-carboxamide]	> 25	< 3	< 10	< 3	< 3	–	–
Cc1cc(C(=O)N[C@@H](Cc2ccccc2)C(=O)C(N)=O)c(-c2ccccc2)o1 [Compound 118, (S)—N-(4-amino-3,4-dioxo-1-phenylbutan-2-yl)-5-methyl-2-phenylfuran-3-carboxamide]	> 25	< 3	< 10	< 3	< 3	–	–
Cc1cc(C(=O)N[C@@H](Cc2ccccc2)C(=O)C(N)=O)n(-c2ccc(-c3ccc(F)cc3)cc2)n1 [Compound 126, (S)—N-(4-amino-3,4-dioxo-1-phenylbutan-2-yl)-1-(4′-fluoro-[1,1′-biphenyl]-4-yl)-3-methyl-1H-pyrazole-5-carboxamide]	> 25	< 3	< 10	< 3	< 3	–	–
Cc1ccc(-c2ccc(-n3nc(C)cc3C(=O)N[C@@H](Cc3ccccc3)C(=O)C(N)=O)cc2)cc1 [Compound 130]	> 25	< 3	< 10	< 3	< 3	–	–
Cc1cc(C(=O)N[C@@H](Cc2ccccc2)C(=O)C(N)=O)n(-c2ccc(COc3ccccc3)cc2)n1 [Compound 131, (S)—N-(4-amino-3,4-dioxo-1-phenylbutan-2-yl)-3-methyl-1-(4-(phenoxymethyl)phenyl)-1H-pyrazole-5-carboxamide]	> 25	< 3	10 to 25	< 3	< 3	–	–
Cc1cc(C(=O)N[C@@H](Cc2ccccc2)C(=O)C(N)=O)n(-c2cccnc2)n1 [Compound 136, (S)—N-(4-amino-3,4-dioxo-1-phenylbutan-2-yl)-3-methyl-1-(pyridin-3-yl)-1H-pyrazole-5-carboxamide]	10 to 25	< 3	10 to 25	< 3	< 3	–	–
CCOC(=O)NCc1cccc(-n2nc(C)cc2C(=O)N[C@@H](Cc2ccccc2)C(=O)C(N)=O)c1 [Compound 147, Ethyl (S)-(3-(5-((4-amino-3,4-dioxo-1-phenylbutan-2-yl)carbamoyl)-3-methyl-1H-pyrazol-1-yl)benzyl)carbamate]	–	< 3	–	< 3	< 3	10 to 25	10 to 25

Continued, in another order:

IC50 [1, 6] [µM]	IC50 [2] [µM]	IC50 [3, 7] [µM]	IC50 [4] [µM]	IC50 [5] [µM]	SMILES	IC50 ([1]; read-out: SH-SY5Y + AMC IC50, Column E) [µM]	IC50 ([3]; SH-SY5Y) [µM]
10 to 25	< 3	< 10	< 3	< 3	Cc1ccc(-n2nc(C)cc2C(=O)N[C@@H](Cc2ccccc2)C(=O)C(N)=O)nc1 [Compound 120, (S)—N-(4-amino-3,4-dioxo-1-phenylbutan-2-yl)-3-methyl-1-(5-methylpyridin-2-yl)-1H-pyrazole-5-carboxamide]	–	–
< 10	< 3	10 to 25	< 3	< 3	Cc1cc(C(=O)N[C@@H](Cc2ccccc2)C(=O)C(N)=O)n(-c2cccc(CNC(=O)CCc3ccccc3)c2)n1 [Compound 142, (S)—N-(4-amino-3,4-dioxo-1-phenylbutan-2-yl)-3-methyl-1-(3-((3-phenylpropanamido)methyl)phenyl)-1H-pyrazole-5-carboxamide]	–	–
< 10	< 3	10 to 25	< 3	< 3	CC(=O)NCc1cccc(-n2nc(C)cc2C(=O)N[C@@H](Cc2ccccc2)C(=O)C(N)=O)c1 [Compound 143, (S)-1-(3-(acetamidomethyl)phenyl)-N-(4-amino-3,4-dioxo-1-phenylbutan-2-yl)-3-methyl-1H-pyrazole-5-carboxamide]	–	–
< 10	< 3	< 10	< 3	< 3	Cc1cc(C(=O)N[C@@H](Cc2ccccc2)C(=O)C(N)=O)n(-c2cccc(CNC(=O)Cc3ccccc3)c2)n1 [Compound 144, (S)—N-(4-amino-3,4-dioxo-1-phenylbutan-2-yl)-3-methyl-1-(3-((2-phenylacetamido)methyl)phenyl)-1H-pyrazole-5-carboxamide]	–	–
< 10	< 3	< 10	< 3	< 3	Cc1cc(C(=O)N[C@@H](Cc2ccccc2)C(=O)C(N)=O)n(-c2cccc(CNS(=O)(=O)c3ccccc3)c2)n1 [Compound 145, (S)—N-(4-amino-3,4-dioxo-1-phenylbutan-2-yl)-3-methyl-1-(3-(phenylsulfonamidomethyl)phenyl)-1H-pyrazole-5-carboxamide]	–	–
< 10	< 3	10 to 25	< 3	< 3	Cc1cc(C(=O)N[C@@H](Cc2ccccc2)C(=O)C(N)=O)n(-c2cccc(CNCc3ccccc3)c2)n1 [Compound 146, (S)—N-(4-amino-3,4-dioxo-1-phenylbutan-2-yl)-1-(3-((benzylamino)methyl)phenyl)-3-methyl-1H-pyrazole-5-carboxamide]	–	–
